According to patent US6528494B2 (priority 1996, dated 2003):
Counter-ions that a name gives are not always drawn.

How the values were obtained:
Assay type in all cases: cell-based
adenosine 2a receptor = adenosine 2a receptor (Homo sapiens, UniProt P29274); assay: Agonist activity against adenosine 2a receptor (CHO cells, cAMP/SPAP reporter); details: CHO cells transfected with human receptor; basal cAMP via SPAP; mean of all the versions tested
Description: (§1) (1) Agonist activity against adenosine 2a, adenosine 1 and adenosine 3 receptor subtypes.
(§2) The effect of test compounds was determined by their effects on basal levels of cAMP (A2a) or on forskolin-enhanced cAMP (A1 and A3) as reflected by changes in levels of SPAP.

adenosine 1 receptor = target: T1, adenosine 1 receptor (Homo sapiens, UniProt P30542); assay: Agonist activity against adenosine 1 receptor (CHO cells, forskolin-enhanced cAMP/SPAP reporter); details: CHO cells transfected with human receptor; forskolin-enhanced cAMP via SPAP; mean of all the versions tested
T1 sequence (P30542 1-326): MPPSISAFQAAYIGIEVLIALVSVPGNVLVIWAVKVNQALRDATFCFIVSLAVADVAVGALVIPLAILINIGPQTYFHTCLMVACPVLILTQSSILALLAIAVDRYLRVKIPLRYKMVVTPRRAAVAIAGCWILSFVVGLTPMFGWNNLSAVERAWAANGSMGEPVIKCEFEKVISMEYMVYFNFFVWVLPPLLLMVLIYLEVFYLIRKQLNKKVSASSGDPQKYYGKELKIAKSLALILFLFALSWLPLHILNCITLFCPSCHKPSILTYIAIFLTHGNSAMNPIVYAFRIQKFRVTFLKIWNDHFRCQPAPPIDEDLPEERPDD
Description: as §1, §2

adenosine 3 receptor = target: T2, adenosine 3 receptor (Homo sapiens, UniProt P0DMS8); assay: Agonist activity against adenosine 3 receptor (CHO cells, forskolin-enhanced cAMP/SPAP reporter); details: CHO cells transfected with human receptor; forskolin-enhanced cAMP via SPAP; mean of all the versions tested
T2 sequence (P0DMS8 1-318): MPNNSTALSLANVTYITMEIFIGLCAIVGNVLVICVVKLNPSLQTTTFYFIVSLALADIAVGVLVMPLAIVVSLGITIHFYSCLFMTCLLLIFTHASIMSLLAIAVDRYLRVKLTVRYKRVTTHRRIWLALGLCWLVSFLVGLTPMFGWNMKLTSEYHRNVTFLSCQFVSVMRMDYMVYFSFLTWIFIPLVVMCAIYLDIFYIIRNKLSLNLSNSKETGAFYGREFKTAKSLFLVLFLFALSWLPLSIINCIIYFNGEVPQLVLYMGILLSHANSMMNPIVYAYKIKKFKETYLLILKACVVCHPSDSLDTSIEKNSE
Description: as §1, §2

Chain of adenosine 2a receptor (P29274 whole entry): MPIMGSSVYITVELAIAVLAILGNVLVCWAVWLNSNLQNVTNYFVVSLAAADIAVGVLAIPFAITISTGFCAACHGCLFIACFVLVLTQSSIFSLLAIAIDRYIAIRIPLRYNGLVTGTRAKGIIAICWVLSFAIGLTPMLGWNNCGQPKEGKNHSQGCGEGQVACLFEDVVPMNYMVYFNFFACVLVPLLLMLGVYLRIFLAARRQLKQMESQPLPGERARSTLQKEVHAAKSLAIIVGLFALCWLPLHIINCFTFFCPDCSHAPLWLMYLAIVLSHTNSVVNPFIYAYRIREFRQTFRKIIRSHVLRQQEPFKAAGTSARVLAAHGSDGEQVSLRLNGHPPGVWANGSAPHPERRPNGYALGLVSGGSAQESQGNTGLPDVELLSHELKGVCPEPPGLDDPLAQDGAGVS

CCn1nnc(C2OC(n3cnc4c(NC(CO)Cc5ccccc5)nc(NC5CCNC5)nc43)C(O)C2O)n1 [Example 62, (2R,3S,4R,5R)-2-(2-Ethyl-2H-tetrazol-5-yl)-5-[6-(1S-hydroxymethyl-2-phenyl-ethylamino)-2-(pyrrolidin-3R-ylamino)-purin-9-yl]-tetrahydro-furan-3,4-diol bis(Formate)]
A2a EC50 as a ratio of that of NECA (adenosine 2a receptor): 2.29
A1 EC50 as a ratio of that of NECA (adenosine 1 receptor): 21.10
A3 EC50 as a ratio of that of NECA (adenosine 3 receptor): >295

Cn1cnc(CCNc2nc(NC(CO)Cc3ccccc3)c3ncn(C4OC(c5nnn(C)n5)C(O)C4O)c3n2)c1 [Example 32, (2R,3R,4S,5R)-2-{6-(1S-Hydroxymethyl-2-phenyl-ethylamino)-2-[2-(1-methyl-1H-imidazol-4-yl)-ethylamino]-purin-9-yl}-5-(2-methyl-2H-tetrazol-5-yl)-tetrahydro-furan-3,4-diol Formate]
A2a EC50 as a ratio of that of NECA (adenosine 2a receptor): 0.026
A1 EC50 as a ratio of that of NECA (adenosine 1 receptor): 56.2
A3 EC50 as a ratio of that of NECA (adenosine 3 receptor): >100

CC(C)n1nnc([C@H]2O[C@@H](n3cnc4c(NC5CCCC5)nc(NCCc5cn(C)cn5)nc43)[C@H](O)[C@@H]2O)n1.O=CO [Example 41, (2R,3R,4S,5R)-2-{6-Cyclopentylamino-2-[2-(1-methyl-1H-imidazol-4-yl)-ethylamino]-purin-9-yl}-5-(2-isopropyl-2H-tetrazol-5-yl)-tetrahydro-furan-3,4-diol Formate]
A2a EC50 as a ratio of that of NECA (adenosine 2a receptor): 0.73
A1 EC50 as a ratio of that of NECA (adenosine 1 receptor): 28.9
A3 EC50 as a ratio of that of NECA (adenosine 3 receptor): >232

Cn1nnc([C@H]2O[C@@H](n3cnc4c(N)nc(NC5CC6CCC5C6)nc43)[C@H](O)[C@@H]2O)n1.O=CO (stereo partly drawn) [Example 39, (2R,3R,4S,5R)-2-[6-Amino-2-(bicyclo[2.2.1]hept-2-ylamino)-purin-9-yl]-5-(2-methyl-2H-tetrazol-5-yl)-tetrahydro-furan-3,4-diol Formate]
A2a EC50 as a ratio of that of NECA (adenosine 2a receptor): 0.31
A1 EC50 as a ratio of that of NECA (adenosine 1 receptor): 1429
A3 EC50 as a ratio of that of NECA (adenosine 3 receptor): >315

CC(C)n1nnc([C@H]2O[C@@H](n3cnc4c(N[C@H](CO)Cc5ccccc5)nc(N[C@H]5CCNC5)nc43)[C@H](O)[C@@H]2O)n1.O=CO.O=CO [Example 64, (2R,3R,4S,5R)-2-[6-(1S-Hydroxymethyl-2-phenyl-ethylamino)-2-(pyrrolidin-3S-ylamino)-purin-9-yl]-5-(2-isopropyl-2H-tetrazol-5-yl)-tetrahydro-furan-3,4-diol bis(Formate)]
A2a EC50 as a ratio of that of NECA (adenosine 2a receptor): 2.54
A1 EC50 as a ratio of that of NECA (adenosine 1 receptor): 21.30
A3 EC50 as a ratio of that of NECA (adenosine 3 receptor): >326

Cn1nnc(C2OC(n3cnc4c(NC(CO)Cc5ccccc5)nc(NC(CO)Cc5ccccc5)nc43)C(O)C2O)n1 [Example 110, (2R,3R,4S,5R)-2-[2,6-Bis-(1S-Hydroxymethyl-2-phenyl-ethylamino)-purin-9-yl]-5-(2-methyl-2H-tetrazol-5-yl)-tetrahydro-furan-3,4-diol Formate]
A2a EC50 as a ratio of that of NECA (adenosine 2a receptor): 5.00
A1 EC50 as a ratio of that of NECA (adenosine 1 receptor): 3.13
A3 EC50 as a ratio of that of NECA (adenosine 3 receptor): >315

CCn1nnc([C@H]2O[C@@H](n3cnc4c(NCc5cccc(I)c5)nc(NCCN5CCOCC5)nc43)[C@H](O)[C@@H]2O)n1 [Example 48, (2R,3S,4R,5R)-2-(2-Ethyl-2H-tetrazol-5-yl)-5-[6-(3-iodo-benzylamino)-2-(2-morpholin-4-yl-ethylamino)-purin-9-yl]-tetrahydro-furan-3,4-diol]
A2a EC50 as a ratio of that of NECA (adenosine 2a receptor): 4.12
A1 EC50 as a ratio of that of NECA (adenosine 1 receptor): 102.00
A3 EC50 as a ratio of that of NECA (adenosine 3 receptor): >181

Cn1nnc(C2OC(n3cnc4c(NCc5cccc(I)c5)nc(NCCN5CCCCC5)nc43)C(O)C2O)n1 [Example 106, (2R,3R,4S,5R)-2-[6-(3-lodo-benzylamino)-2-(2-piperidin-1-yl-ethylamino)-purin-9-yl]-5-(2-methyl-2H-tetrazol-5-yl)-tetrahydro-furan-3,4-diol bis(Formate)]
A2a EC50 as a ratio of that of NECA (adenosine 2a receptor): 1.12
A1 EC50 as a ratio of that of NECA (adenosine 1 receptor): 100.30
A3 EC50 as a ratio of that of NECA (adenosine 3 receptor): >201

CCn1nnc([C@H]2O[C@@H](n3cnc4c(N)nc(N[C@H]5CC[C@H](N)CC5)nc43)[C@H](O)[C@@H]2O)n1 [Example 53, (2R,3R,4S,5R)-2-[6-Amino-2-(trans-4-amino-cyclohexylamino)-purin-9-yl]-5-(2-ethyl-2H-tetrazol-5-yl)-tetrahydro-furan-3,4-diol]
A2a EC50 as a ratio of that of NECA (adenosine 2a receptor): 4.14
A1 EC50 as a ratio of that of NECA (adenosine 1 receptor): 298.30
A3 EC50 as a ratio of that of NECA (adenosine 3 receptor): >960

Cn1nnc(C2OC(n3cnc4c(NC(CO)Cc5ccccc5)nc(NC5CCC(N)CC5)nc43)C(O)C2O)n1 [Example 35, (2R,3R,4S,5R)-2-[2-(trans-4-Amino-cyclohexylamino)-6-(1S-hydroxymethyl-2-phenyl-ethylamino)-purin-9-yl]-5-(2-methyl-2H-tetrazol-5-yl)-tetrahydro-furan-3,4-diol bis(Formate)]
A2a EC50 as a ratio of that of NECA (adenosine 2a receptor): 0.79
A1 EC50 as a ratio of that of NECA (adenosine 1 receptor): 123
A3 EC50 as a ratio of that of NECA (adenosine 3 receptor): >201

CCC(CC)Nc1nc(NCCc2cn(C)cn2)nc2c1ncn2[C@@H]1O[C@H](c2nnn(C)n2)[C@@H](O)[C@H]1O.O=CO [Example 33, (2R,3R,4S,5R)-2-{6-(1-Ethyl-propylamino)-2-[2-(1-methyl-1H-imidazol-4-yl)-ethylamino]-purin-9-yl}-5-(2-methyl-2H-tetrazol-5-yl)-tetrahydro-furan-3,4-diol Formate]
A2a EC50 as a ratio of that of NECA (adenosine 2a receptor): 0.16
A1 EC50 as a ratio of that of NECA (adenosine 1 receptor): >4045
A3 EC50 as a ratio of that of NECA (adenosine 3 receptor): >172

COc1ccc(CCNc2nc(N)c3ncn([C@@H]4O[C@H](c5nnn(C(C)C)n5)[C@@H](O)[C@H]4O)c3n2)cc1OC.O=CO [Example 42, (2R,3R,4S,5R)-2-{6-Amino-2-[2-(3,4-dimethoxy-phenyl)-ethylamino]-purin-9-yl}-5-(2-isopropyl-2H-tetrazol-5-yl)-tetrahydro-furan-3,4-diol Formate]
A2a EC50 as a ratio of that of NECA (adenosine 2a receptor): 0.63
A1 EC50 as a ratio of that of NECA (adenosine 1 receptor): 414.9
A3 EC50 as a ratio of that of NECA (adenosine 3 receptor): >413

CCn1nnc([C@H]2O[C@@H](n3cnc4c(NCC(c5ccccc5)c5ccccc5)nc(NCCN5CCOCC5)nc43)[C@H](O)[C@@H]2O)n1.O=C(O)C(F)(F)F.O=C(O)C(F)(F)F.O=C(O)C(F)(F)F [Example 44, (2R,3R,4S,5R)-2-[6-(2,2-Diphenyl-ethylamino)-2-(2-morpholin-4-yl-ethylamino)-purin-9-yl]-5-(2-ethyl-2H-tetrazol-5-yl)-tetrahydro-furan-3,4-diol tris(Trifluoroacetate)]
A2a EC50 as a ratio of that of NECA (adenosine 2a receptor): 3.25
A1 EC50 as a ratio of that of NECA (adenosine 1 receptor): 44.11
A3 EC50 as a ratio of that of NECA (adenosine 3 receptor): >546

CCn1nnc([C@H]2O[C@@H](n3cnc4c(NCC(c5ccccc5)c5ccccc5)nc(NC5CCSCC5)nc43)[C@H](O)[C@@H]2O)n1.O=C(O)C(F)(F)F [Example 114]
A2a EC50 as a ratio of that of NECA (adenosine 2a receptor): 0.58
A1 EC50 as a ratio of that of NECA (adenosine 1 receptor): 242.2
A3 EC50 as a ratio of that of NECA (adenosine 3 receptor): >2972.0

CCn1nnc(C2OC(n3cnc4c(NCc5cccc(I)c5)nc(NC5CCN(Cc6ccccc6)C5)nc43)C(O)C2O)n1.O=CO.O=CO [Example 77, (2R,3R,4S,5R)-2-[2-(1-Benzyl-pyrrolidin-3-ylamino)-6-(3-iodo-benzylamino)-purin-9-yl]-5-(2-ethyl-2H-tetrazol-5-yl)-tetrahydro-furan-3,4-diol bis(Formate)]
A2a EC50 as a ratio of that of NECA (adenosine 2a receptor): 3.30
A1 EC50 as a ratio of that of NECA (adenosine 1 receptor): 101.30
A3 EC50 as a ratio of that of NECA (adenosine 3 receptor): >200

CCn1nnc([C@H]2O[C@@H](n3cnc4c(NCCc5ccccc5)nc(NCCN5CCOCC5)nc43)[C@H](O)[C@@H]2O)n1 [Example 49, (2R,3S,4R,5R)-2-(2-Ethyl-2H-tetrazol-5-yl)-5-[2-(2-morpholin-4-yl-ethylamino)-6-phenethylamino-purin-9-yl]-tetrahydro-furan-3,4-diol]
A2a EC50 as a ratio of that of NECA (adenosine 2a receptor): 3.28
A1 EC50 as a ratio of that of NECA (adenosine 1 receptor): 158.70
A3 EC50 as a ratio of that of NECA (adenosine 3 receptor): >214

(2R,3S,4R,5R)-2-(2-Ethyl-2H-tetrazol-5-yl)-5-[6-(1S-hydroxymethyl-2-ethylamino)-2-(2-morpholin-4-yl-ethylamino)-purin-9-yl]-tetrahydro-furan-3,4-diol Formate [Example 78]
A2a EC50 as a ratio of that of NECA (adenosine 2a receptor): 4.00
A1 EC50 as a ratio of that of NECA (adenosine 1 receptor): 31.00
A3 EC50 as a ratio of that of NECA (adenosine 3 receptor): >181

Cn1nnc(C2OC(n3cnc4c(NCC(c5ccccc5)c5ccccc5)nc(NC5CCNC5)nc43)C(O)C2O)n1 [Example 94, (2R,3R,4S,5R)-2-[6-(2,2-Diphenyl-ethylamino)-2-(pyrrolidin-3R-ylamino)-purin-9-yl]-5-(2-methyl-2H-tetrazol-5-yl)-tetrahydro-furan-3,4-diol Diformate]
A2a EC50 as a ratio of that of NECA (adenosine 2a receptor): 2.39
A1 EC50 as a ratio of that of NECA (adenosine 1 receptor): 385.90
A3 EC50 as a ratio of that of NECA (adenosine 3 receptor): >411
